The IC50 is the concentration needed to halve the response being measured.

The subject of data set [1] is RSV. Description: Plaque reduction assay in Vero cells (standard and time of addition). The data set is classed as cell-based. As to conditions: human respiratory syncytial virus. (Plaques are areas of infected cells; plaque reduction assays count them against a control.)
For data set [2], the system named is MDR1-MDCK cells. Description: MDR1-MDCK permeability assay. Type of data set: in vitro ADME. The method, then:
(§1) MDR1-MDCK cells obtained from the NIH (Rockville, Md., USA) are used between passage numbers 6-30. Cells are seeded onto Millipore Multiscreen Transwell plates at 3.4×10^5 cells/cm^2. The cells are cultured in DMEM and media is changed on day 3. On day 4 the permeability study is performed. Cell culture and assay incubations are carried out at 37° C. in an atmosphere of 5% CO2 with a relative humidity of 95%. On the day of the assay, the monolayers are prepared by rinsing both basolateral and apical surfaces twice with Hanks Balanced Salt Solution (HBSS) at the desired pH warmed to 37° C. Cells are then incubated with HBSS at the desired pH in both apical and basolateral compartments for 40 min to stabilise physiological parameters.
(§2) The dosing solutions are prepared by diluting compound 2 with assay buffer to give a final compound 2 concentration of 10 μM (final DMSO concentration of 1% v/v). The fluorescent integrity marker lucifer yellow is also included in the dosing solution. Analytical standards are prepared from test compound DMSO dilutions and transferred to buffer, maintaining a 1% v/v DMSO concentration.
(§3) For assessment of A-B permeability, HBSS is removed from the apical compartment and replaced with compound 2 dosing solution. The apical compartment insert is then placed into a companion plate containing fresh buffer (containing 1% v/v DMSO). For assessment of B-A permeability, HBSS is removed from the companion plate and replaced with compound 2 dosing solution. Fresh buffer (containing 1% v/v DMSO) is added to the apical compartment insert, which is then placed into the companion plate.
(§4) At 60 min the apical compartment inserts and the companion plates are separated and apical and basolateral samples diluted for analysis.
(§5) Compound 2 permeability is assessed in duplicate. Compounds of known permeability characteristics are run as controls on each assay plate.
(§6) Compound 2 and control compounds are quantified by LC-MS/MS cassette analysis using an 8-point calibration with appropriate dilution of the samples. The starting concentration (Co) is determined from the dosing solution and the experimental recovery calculated from Co and both apical and basolateral compartment concentrations.
(§7) The integrity of the monolayer throughout the experiment is checked by monitoring lucifer yellow permeation using fluorimetric analysis. Lucifer yellow permeation is high if monolayers have been damaged.

The subject of data set [3] is MDR1. Description: MDR1-MDCK permeability assay. The data set is classed as in vitro ADME. As to conditions: dog. Here is the method: as §1, §2, §3, §4, §5, §6, §7

Like-named read-outs stand apart in the source and are kept apart here.

Regarding `O=C(CNc1c(F)c(F)nc(F)c1F)N[C@H]1N=C(c2ccccc2)c2ccccc2NC1=O` [Compound 2], the IC50 in data set [1] (compound added during infection only, read-out: Plaque IC50 (during infection only)) stood at 10.9 µM; in data set [1] (compound added post infection only, read-out: Plaque IC50 (post infection only)), 2 µM; in data set [1] (standard plaque reduction assay, read-out: Plaque IC50), 1.1 µM. For the same molecule, in data set [2], the “Permeability assessment in words” value was “permeable compound but with a susceptibility for an efflux mechanism”. Also, in data set [3] (10 μM, 60 min, read-out: Permeability A2B), the Papp A→B at 60 min, 10 μM turned out to be 0.553 ×10⁻⁶ cm/s. The Papp B→A at 60 min, 10 μM in data set [3] (10 μM, 60 min, read-out: Permeability B2A) is 76.3 ×10⁻⁶ cm/s. Moreover, the efflux ratio at 60 min, 10 μM in data set [3] (read-out: Efflux ratio B2A/A2B) worked out at 138.

These data come from patent US11247973B2 (The University of Durham, priority 2016, dated 2022).
